Measured values as given in patent US20250049970A1, “DLL3 TARGETING PEPTIDES AND CONSTRUCTS THEREOF” (MARIANA ONCOLOGY INC., priority 2023, published 2025).
Read-outs that look alike come from different tables or passages of the source. *1 amine or outer side, *2 acyl side, *3 side chain or, on linkers, in order; H or OH if unused. Where a SMILES comes first, the peptide text is derived from it. Bridges are numbered along the chain shown (N, C = ends). [ ]: non-standard residue; d: D form. The star is where a group is joined. Ala(piperidin-4-yl) = O=C([C@H](CC1CCN([*:3])CC1)N[*:1])[*:2]; DOTA = O=C(O)CN1CCN(CC(=O)O)CCN(CC(=O)*)CCN(CC(=O)O)CC1; X5 = O=C(Cc1ccc(Br)cc1)NCCOCCOCCOCCOCCOCCOCCOCCOCC(=O)*; X2 = O=C(Cc1ccc(I)cc1)NCCOCCOCCOCCOCCOCCOCCOCCOCC(=O)*; Trp(7-OMe) = COc1cccc2c(C[C@H](N)C(=O)O)c[nH]c12; 2Nal = N[C@@H](Cc1ccc2ccccc2c1)C(=O)O; NMetBuAla = CN[C@@H](CC(C)(C)C)C(=O)O; Chg = N[C@H](C(=O)O)C1CCCCC1; NMeNle = CCCC[C@H](NC)C(=O)O; CH2 = C([*:1])[*:2]

Biological target: T1, DLL3 (Homo sapiens, UniProt Q9NYJ7)
T1 sequence (Q9NYJ7 27-618): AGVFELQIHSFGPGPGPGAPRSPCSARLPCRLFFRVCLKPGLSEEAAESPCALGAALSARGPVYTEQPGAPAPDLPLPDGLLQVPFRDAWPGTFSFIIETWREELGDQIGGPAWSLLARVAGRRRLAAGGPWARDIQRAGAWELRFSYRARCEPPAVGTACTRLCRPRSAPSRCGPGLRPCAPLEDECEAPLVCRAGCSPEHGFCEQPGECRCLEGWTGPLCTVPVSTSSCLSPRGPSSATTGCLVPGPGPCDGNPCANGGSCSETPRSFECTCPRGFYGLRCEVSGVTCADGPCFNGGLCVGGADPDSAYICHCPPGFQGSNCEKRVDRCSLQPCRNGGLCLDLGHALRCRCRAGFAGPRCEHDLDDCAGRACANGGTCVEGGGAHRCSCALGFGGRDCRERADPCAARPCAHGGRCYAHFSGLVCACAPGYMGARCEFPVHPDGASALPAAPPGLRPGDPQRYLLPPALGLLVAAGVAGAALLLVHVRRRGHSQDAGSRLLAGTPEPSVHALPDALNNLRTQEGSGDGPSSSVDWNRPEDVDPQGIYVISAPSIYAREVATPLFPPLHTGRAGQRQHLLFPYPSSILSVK
Test: SPR KD, biotinylated human DLL3 on streptavidin chip (Table 8)
Set-up: biotin (biotinylated)
Settings: biotinylated human DLL3 on streptavidin sensor chip, 25° C., 1:1 binding model
Text: Biotinylated target ligand human DLL3 was immobilized on a streptavidin sensor chip. A reference surface was set up for nonspecific binding and refractive index changes. […] Sensorgram curves were fitted with 1:1 binding model, and affinity and kinetic parameters were obtained using Biacore Insight evaluation 4.0. software.

SMILES	Kd (read-out: SPR KD)	Kd (SPR KD)
CC(=O)N[C@@H](Cc1c[nH]c2ccccc12)C(=O)N[C@H](C(=O)N[C@H](C(=O)N[C@H]1CSCSC[C@@H](C(=O)N[C@@H](Cc2c[nH]c3ccccc23)C(=O)N2CCC[C@H]2C(=O)N[C@H](CCCCNC(=O)COCCOCCOCCOCCOCCOCCOCCOCCNC(=O)Cc2ccc(Br)cc2)C(N)=O)NC(=O)[C@H](CC(=O)O)NC(=O)[C@H](CCCCNC(=O)CN2CCN(CC(=O)O)CCN(CC(=O)O)CCN(CC(=O)O)CC2)NC(=O)[C@H](Cc2ccc3ccccc3c2)NC(=O)[C@H](CC(N)=O)NC(=O)[C@H](CC2CCNCC2)NC1=O)C1CCCCC1)[C@@H](C)O [compound 418] (Ac-WT[Chg]C[Ala(piperidin-4-yl)]N[2Nal]K(DOTA)DCWP[dK](X5)-NH2; linker 4-10 via CH2)	< 1 nM	
CC(=O)N[C@@H](Cc1c[nH]c2ccccc12)C(=O)N[C@H](C(=O)N(C)[C@@H](CC(C)(C)C)C(=O)N[C@H]1CSSC[C@@H](C(=O)N[C@@H](Cc2c[nH]c3ccccc23)C(=O)N2CCC[C@H]2C(N)=O)NC(=O)[C@H](CC(=O)O)NC(=O)[C@H](CCCCNC(=O)CN2CCN(CC(=O)O)CCN(CC(=O)O)CCN(CC(=O)O)CC2)NC(=O)[C@H](Cc2ccc3ccccc3c2)NC(=O)[C@H](CC(N)=O)NC(=O)[C@H](CC2CCNCC2)NC1=O)[C@@H](C)O [compound 419, Ac-W-T-(NMe-tBuAla)-C(3)-[3-(4piperdinyl)-Ala]-N-(2Nal)-Lys(DOTA)-D-C(3)-W-P-CONH2] (Ac-WT[NMetBuAla]C[Ala(piperidin-4-yl)]N[2Nal]K(DOTA)DCWP-NH2; disulfide 4-10)	< 1 nM	
CC(=O)N[C@@H](Cc1c[nH]c2ccccc12)C(=O)N[C@H](C(=O)N[C@H](C(=O)N[C@H]1CSSC[C@@H](C(=O)N[C@@H](Cc2c[nH]c3ccccc23)C(=O)N2CCC[C@H]2C(=O)N[C@H](CCCCNC(=O)COCCOCCOCCOCCOCCOCCOCCOCCNC(=O)Cc2ccc(I)cc2)C(N)=O)NC(=O)[C@H](CC(=O)O)NC(=O)[C@H](CCCCNC(=O)CN2CCN(CC(=O)O)CCN(CC(=O)O)CCN(CC(=O)O)CC2)NC(=O)[C@H](Cc2ccc3ccccc3c2)NC(=O)[C@H](CC(N)=O)NC(=O)[C@H](CC2CCNCC2)NC1=O)C1CCCCC1)[C@@H](C)O [compound 420] (Ac-WT[Chg]C[Ala(piperidin-4-yl)]N[2Nal]K(DOTA)DCWP[dK](X2)-NH2; disulfide 4-10)		< 1 nM
CC(=O)N[C@@H](Cc1c[nH]c2ccccc12)C(=O)N[C@H](C(=O)N[C@H](C(=O)N[C@H]1CSSC[C@@H](C(=O)N[C@@H](Cc2c[nH]c3ccccc23)C(=O)N2CCC[C@H]2C(=O)N[C@H](CCCCNC(=O)COCCOCCOCCOCCOCCOCCOCCOCCNC(=O)Cc2ccc(Br)cc2)C(N)=O)NC(=O)[C@H](CC(=O)O)NC(=O)[C@H](CCCCNC(=O)CN2CCN(CC(=O)O)CCN(CC(=O)O)CCN(CC(=O)O)CC2)NC(=O)[C@H](Cc2ccc3ccccc3c2)NC(=O)[C@H](CC(N)=O)NC(=O)[C@H](CC2CCNCC2)NC1=O)C1CCCCC1)[C@@H](C)O [compound 421] (Ac-WT[Chg]C[Ala(piperidin-4-yl)]N[2Nal]K(DOTA)DCWP[dK](X5)-NH2; disulfide 4-10)		< 1 nM
CCCC[C@@H](C(=O)N[C@H]1CSSC[C@@H](C(=O)N[C@@H](Cc2c[nH]c3ccccc23)C(=O)N2CCC[C@H]2C(N)=O)NC(=O)[C@H](CC(=O)O)NC(=O)[C@H](CCCCNC(=O)CN2CCN(CC(=O)O)CCN(CC(=O)O)CCN(CC(=O)O)CC2)NC(=O)[C@H](Cc2ccc3ccccc3c2)NC(=O)[C@H](CC(N)=O)NC(=O)[C@H](CC2CCNCC2)NC1=O)N(C)C(=O)[C@@H](NC(=O)[C@H](Cc1c[nH]c2c(OC)cccc12)NC(C)=O)[C@@H](C)O [compound 422, Ac-(7MeO-Trp)-T-(NMe-Nle)-C(3)-[3-(4piperdinyl)-Ala]-N-(2Nal)-Lys(DOTA)-D-C(3)-W-P-CONH2] (Ac-[Trp(7-OMe)]T[NMeNle]C[Ala(piperidin-4-yl)]N[2Nal]K(DOTA)DCWP-NH2; disulfide 4-10)	< 1 nM	
